These results are taken from patent publication US20150031674A1, “SERINE/THREONINE KINASE INHIBITORS” (GENENTECH, INC., priority 2013, published 2015).

Experiment [1] addresses human recombinant PAK1-KD protein (Homo sapiens, UniProt Q13153). Kind of experiment: PAK1-KD (Kinase Domain) IC50 Zlyte Assay (FRET peptide substrate phosphorylation). To be noted: Z'-LYTE, Biological Example 1.
From the text: PAK1-KD (Kinase Domain) IC50 Zlyte Assay Protocol
Activity of human recombinant PAK1-KD protein may be assessed in vitro by assay of the phosphorylation of a FRET peptide substrate. Catalytically active human recombinant PAK1-KD protein is obtained by purification from Tini cells infected with a human PAK1-KD recombinant baculovirus expression vector.
The activity/inhibition of PAK1-KD was estimated by measuring the phosphorylation of a FRET peptide substrate (Ser/Thr19) labeled with Coumarin and Fluorescein using Z′-LYTE™ assay (Invitrogen). The peptide substrate is a consensus sequence ([sequence]) based on various PAK substrates reported in the scientific literature. […] Incubations were carried out at 22° C. in black polypropylene 384-well plates (Corning Costar).
The subject of experiment [2] is group I PAKs in EBC1 cells (MEK1 phosphorylation at S298). The experiment is described as follows: Cellular PAK IC50 Assay: MEK1 phosphorylation at S298 by HTRF. Format: cell-based. Particulars: Homo sapiens, EBC-1, 2 h treatment, media containing 0.1% FBS, phospho-MEK1 (S298) HTRF. As for the experimental part:
Cellular PAK IC50 Assay Protocol
Group I PAKs (PAK1-3) are activated upon binding to the Rho GTPases, Rac1 and Cdc42. Activated group I PAKs phosphorylate MEK1 at Serine 298 (S298), one of the two sites in the catalytic domain that is important for stable association between Raf and MEK1 and subsequent MAPK activation. The inhibition of group I PAKs in EBC1 cells is assessed by detecting changes in the level of MEK1 phosphorylation at S298 using homogenous time-resolved fluorescence (HTRF). Inhibitory activity was estimated by treating 2×10^4 EBC1 cells for 2 h with PAK inhibitors in media containing 0.1% FBS. Following inhibitor treatment, cells were lysed with 25 μL of 1× cellular kinase lysis buffer (Cisbio) containing 1× cellular kinase blocking reagent (Cisbio). Cellular lysis was carried out at 4° C. for 2 h with constant shaking before lysate (16 μL) was transferred to white 384-well ProxiPlates™ (Perkin Elmer). Anti-total MEK1 antibody labeled with Europium cryptate donor (1 ng/well) (Cell Signaling Technologies catalog number 2352) and anti-phospho MEK1 (S298) antibody labeled with d2 acceptor (Cell Signaling Technologies catalog number 9128) (10 ng/well) were prepared in 1× detection buffer (CisBio) and added to each well of the assay plate and allowed to incubate at RT overnight. The following day the fluorescence emission from each well was measured in EnVision® (Perkin Elmer) at an excitation of 330 nm and dual emission wavelengths of 615 nm and 665 nm. The signal in each well at 665 nm was multiplied by 10,000 and divided by the signal in the same well at 615 nm to obtain a ratio. Ratio values ([665·10,000]÷615) were plotted as a function of the concentration of compound to determine IC50 values.

Molecules are shown by their SMILES.

Chain of human recombinant PAK1-KD protein (Q13153 270-521 limits assumed): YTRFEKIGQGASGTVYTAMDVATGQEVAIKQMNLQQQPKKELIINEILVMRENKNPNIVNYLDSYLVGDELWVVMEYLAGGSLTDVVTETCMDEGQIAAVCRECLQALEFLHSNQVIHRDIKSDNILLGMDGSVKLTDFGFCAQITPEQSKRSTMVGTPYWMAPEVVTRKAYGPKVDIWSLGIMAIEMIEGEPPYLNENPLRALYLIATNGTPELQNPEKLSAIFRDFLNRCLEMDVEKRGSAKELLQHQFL

Usually Ki stands for a measure of affinity in units of concentration, obtained from inhibition or displacement. As a reminder, the IC50 is the concentration at which inhibition is half-maximal. For the molecule `Cc1cccc(-c2ccc(-c3cc4cnc(N)nc4n(CCC4CNCCO4)c3=O)c(Cl)c2)n1` (racemic) [Example I-127, 2-Amino-6-[2-chloro-4-(6-methyl-2-pyridyl)phenyl]-8-(2-morpholin-2-ylethyl)pyrido[2,3-d]pyrimidin-7-one], in experiment [1], the Ki came to 3.8 nM. In experiment [2], the IC50 was 38.2 nM.
The corresponding values for `CCNc1ncc2cc(-c3ccc(-c4cncc(C)n4)cc3Cl)c(=O)n(CCC3CCCN3)c2n1` (single isomer, unassigned) [Example I-19] are 26.8 nM and 286 nM.
In the case of `CCNc1ncc2cc(-c3ccc(-c4cncc(C)n4)cc3Cl)c(=O)n(CCC3CNCCO3)c2n1` (single isomer, unassigned) [Example I-22], in experiment [1], the Ki amounted to 8.9 nM. Further, in experiment [2], the IC50 was determined as 63.5 nM.
As to `CCNc1ncc2cc(-c3ccc(-c4cncc(C)n4)cc3Cl)c(=O)n(CCOC3CCNC3)c2n1` (single isomer, unassigned) [Example I-52], in experiment [1], the Ki came to 5.6 nM. The same molecule had an IC50 in experiment [2] of 156 nM.
The like results for `CCNc1ncc2cc(-c3ccc(-c4cncc(C)n4)cc3Cl)c(=O)n(CC(C)OC3CNC3)c2n1` (single isomer, unassigned) [Example I-91, 8-[2-(Azetidin-3-yloxy)propyl]-6-[2-chloro-4-(6-methylpyrazin-2-yl)phenyl]-2-(ethylamino)pyrido[2,3-d]pyrimidin-7-one] were, in that order, 7.1 nM and 108 nM.
As for `CCNc1ncc2cc(-c3ccc(-c4cncc(C)n4)cc3Cl)c(=O)n(CCCN)c2n1` [Example I-1, 8-(3-Aminopropyl)-6-[2-chloro-4-(6-methylpyrazin-2-yl)phenyl]-2-(ethylamino)pyrido[2,3-d]pyrimidin-7-one], the Ki in experiment [1] is 8.23 nM. Besides, in experiment [2], the IC50 was determined as 249 nM.
As to `CCNc1ncc2cc(-c3ccc(-c4cncc(C)n4)cc3Cl)c(=O)n(CCCCN)c2n1` [Example I-2, 8-(4-Aminobutyl)-6-[2-chloro-4-(6-methylpyrazin-2-yl)phenyl]-2-(ethylamino)pyrido[2,3-d]pyrimidin-7-one], the IC50 in experiment [2] came out at 146 nM.
As for `CCNc1ncc2cc(-c3ccc(-c4cncc(C)n4)cc3Cl)c(=O)n(CCCC(N)=O)c2n1` [Example I-3, 4-[6-[2-Chloro-4-(6-methylpyrazin-2-yl)phenyl]-2-(ethylamino)-7-oxo-pyrido[2,3-d]pyrimidin-8-yl]butanamide], the Ki in experiment [1] turned out to be 47.4 nM. The same molecule came in with an IC50 in experiment [2] of 506 nM.
On to `CCNc1ncc2cc(-c3ccc(-c4cncc(C)n4)cc3Cl)c(=O)n(CCN3CCNCC3)c2n1` [Example I-4, 6-(2-Chloro-4-(6-methylpyrazin-2-yl)phenyl)-2-(ethylamino)-8-(2-(piperazin-1-yl)ethyl)pyrido[2,3-d]pyrimidin-7(8H)-one], for which the Ki in experiment [1] amounted to 6.4 nM. Half-maximal inhibition in experiment [2] (IC50) required 96 nM.
In experiment [2], `CCNc1ncc2cc(-c3ccc(-c4cncc(C)n4)cc3Cl)c(=O)n(C[C@H]3CC[C@H](N)CC3)c2n1` [Example I-5, 8-(((1r,4r)-4-aminocyclohexyl)methyl)-6-(2-chloro-4-(6-methylpyrazin-2-yl)phenyl)-2-(ethylamino)pyrido[2,3-d]pyrimidin-7(8H)-one] gave an IC50 of 147 nM.
In experiment [2], `CCNc1ncc2cc(-c3ccc(-c4cncc(C)n4)cc3Cl)c(=O)n(CC3CCNCC3)c2n1` [Example I-6, 6-(2-Chloro-4-(6-methylpyrazin-2-yl)phenyl)-2-(ethylamino)-8-(piperidin-4-ylmethyl)pyrido[2,3-d]pyrimidin-7(8H)-one] returned an IC50 of 170 nM. This IC50 and that of the molecule before are within 1.5-fold of each other.
As to `CCNc1ncc2cc(-c3ccc(-c4cncc(C)n4)cc3Cl)c(=O)n(CC(=O)N3CCNCC3)c2n1` [Example I-8, 6-(2-Chloro-4-(6-methylpyrazin-2-yl)phenyl)-2-(ethylamino)-8-(2-oxo-2-(piperazin-1-yl)ethyl)pyrido[2,3-d]pyrimidin-7(8H)-one], the Ki in experiment [1] was 30.9 nM. Further, the IC50 in experiment [2] turned out to be 1500 nM.
For the molecule `Cc1cncc(-c2ccc(-c3cc4cnc(N)nc4n(C[C@H]4CC[C@H](N)CC4)c3=O)c(Cl)c2)n1` [Example I-9, 2-Amino-8-(((1r,4r)-4-aminocyclohexyl)methyl)-6-(2-chloro-4-(6-methylpyrazin-2-yl)phenyl)pyrido[2,3-d]pyrimidin-7(8H)-one], in experiment [1], the Ki turned out to be 14 nM. The molecule also returned an IC50 in experiment [2] of 358 nM.
On to `CCNc1ncc2cc(-c3ccc(-c4cncc(C)n4)cc3Cl)c(=O)n(C[C@H]3CC[C@H](N(C)C)CC3)c2n1` [Example I-10, 6-(2-Chloro-4-(6-methylpyrazin-2-yl)phenyl)-8-(((1r,4r)-4-(dimethylamino)cyclohexyl)methyl)-2-(ethylamino)pyrido[2,3-d]pyrimidin-7(8H)-one], for which the Ki in experiment [1] is 21.3 nM. Also, the IC50 in experiment [2] amounted to 274 nM.
The corresponding values for `CCNc1ncc2cc(-c3ccc(-c4cncc(C)n4)cc3Cl)c(=O)n(CCOC3CNC3)c2n1` [Example I-11, 8-(2-(Azetidin-3-yloxy)ethyl)-6-(2-chloro-4-(6-methylpyrazin-2-yl)phenyl)-2-(ethylamino)pyrido[2,3-d]pyrimidin-7(8H)-one] are 6.94 nM and 189 nM.
The like results for `CCNc1ncc2cc(-c3ccc(-c4cncc(C)n4)cc3Cl)c(=O)n(CCOCCN)c2n1` [Example I-12, 8-(2-(2-Aminoethoxy)ethyl)-6-(2-chloro-4-(6-methylpyrazin-2-yl)phenyl)-2-(ethylamino)pyrido[2,3-d]pyrimidin-7(8H)-one] were, in that order, 4.3 nM and 131 nM.
As to `CCNc1ncc2cc(-c3ccc(-c4cncc(C)n4)cc3Cl)c(=O)n(CCOC3CCNC3)c2n1` (stereo not shown) [Example I-13, 6-(2-Chloro-4-(6-methylpyrazin-2-yl)phenyl)-2-(ethylamino)-8-(2-(pyrrolidin-3-yloxy)ethyl)pyrido[2,3-d]pyrimidin-7(8H)-one], the Ki in experiment [1] worked out at 5.8 nM. For the same molecule, in experiment [2], the IC50 came to 180 nM.
In experiment [2], `CCNc1ncc2cc(-c3ccc(-c4cccc(C)n4)cc3Cl)c(=O)n(C[C@H]3CC[C@H](N)CC3)c2n1` [Example I-15, 8-(((1r,4r)-4-Aminocyclohexyl)methyl)-6-(2-chloro-4-(6-methylpyridin-2-yl)phenyl)-2-(ethylamino)pyrido[2,3-d]pyrimidin-7(8H)-one] returned an IC50 of 46.8 nM.
On to `CNc1ncc2cc(-c3ccc(-c4ncn(C)n4)cc3Cl)c(=O)n(C[C@H]3CNCCO3)c2n1` [Example I-192, 6-[2-chloro-4-(1-methyl-1 2 4-triazol-3-yl)phenyl]-2-(methylamino)-8-[[(2R)-morpholin-2-yl]methyl]pyrido[2,3-d]pyrimidin-7-one], for which the Ki in experiment [1] stood at 4400 nM.
For `CCc1cc(-c2cccc(C)n2)ccc1-c1cc2cnc(NC3COC3)nc2n(C[C@H]2CNCCO2)c1=O` [Example I-193, 6-[2-ethyl-4-(6-methyl-2-pyridyl)phenyl]-8-[[(2R)-morpholin-2-yl]methyl]-2-(oxetan-3-ylamino)pyrido[2,3-d]pyrimidin-7-one], the inhibition constant Ki in experiment [1] amounted to 20.8 nM.
With `CCc1cc(-c2cccc(C)n2)ccc1-c1cc2cnc(NC3COC3)nc2n(C[C@@H]2CNCCO2)c1=O` [Example I-194], in experiment [1], the Ki came out at 26.5 nM.
Consider `CNc1ncc2cc(-c3ccc(-c4cccc(CO)n4)cc3Cl)c(=O)n(C[C@@H]3CNCCO3)c2n1` [Example I-195, 6-[2-Chloro-4-[6-(hydroxymethyl)-2-pyridyl]phenyl]-2-(methylamino)-8-[[(2S)-morpholin-2-yl]methyl]pyrido[2,3-d]pyrimidin-7-one], for which the Ki in experiment [1] stood at 35.4 nM.
With `CNc1ncc2cc(-c3ccc(-c4cccc(C)n4)cc3Cl)c(=O)n(CCOC3CN(C)C3)c2n1` [Example I-196, 6-[2-chloro-4-(6-methyl-2-pyridyl)phenyl]-2-(methylamino)-8-[2-(1-methylazetidin-3-yl)oxyethyl]pyrido[2,3-d]pyrimidin-7-one], in experiment [1], the Ki stood at 18.5 nM.
As for `CCc1cc(-c2cccc(C)n2)ccc1-c1cc2cnc(NC3COC3)nc2n(CC[C@H]2OC[C@H](N)CO2)c1=O` [Example I-198, 8-[2-(5-Amino-1,3-dioxan-2-yl)ethyl]-6-[2-ethyl-4-(6-methyl-2-pyridyl)phenyl]-2-(oxetan-3-ylamino)pyrido[2,3-d]pyrimidin-7-one], the Ki in experiment [1] came to 1.2 nM.
For the molecule `CNc1ncc2cc(-c3ccc(-c4cccc(C)n4)cc3Cl)c(=O)n(CCC3(C#N)CCNC3)c2n1` (stereo not shown) [Example I-199, 3-[2-[6-[2-chloro-4-(6-methyl-2-pyridyl)phenyl]-2-(methylamino)-7-oxo-pyrido[2,3-d]pyrimidin-8-yl]ethyl]pyrrolidine-3-carbonitrile], the Ki in experiment [1] was determined as 2.8 nM.
Turning to `CNc1ncc2cc(-c3ccc(-c4cccc(C)n4)cc3Cl)c(=O)n(CCC3CNCCS3(=O)=O)c2n1` (stereo not shown) [Example I-202, 6-[2-chloro-4-(6-methyl-2-pyridyl)phenyl]-8-[2-(1,1-dioxo-1 4-thiazinan-2-yl)ethyl]-2-(methylamino)pyrido[2,3-d]pyrimidin-7-one], the Ki in experiment [1] was found to be 7.1 nM.
